Source: the supplement of paper PMC13386468

Assays:
Assay in all cases: IC50 for competition of protein binding to Kinobeads
Conditions in all cases: assay detail: Kinobeads competition in P. falciparum blood-stage lysate
UniProt C0H4A6 = molecular target: UniProt C0H4A6
UniProt C0H586 = molecular target: UniProt C0H586
UniProt C0H5I7 = molecular target: UniProt C0H5I7
UniProt C0H5J5 = molecular target: UniProt C0H5J5
UniProt C6KT64 = molecular target: UniProt C6KT64
UniProt O77328 = molecular target: UniProt O77328
UniProt O77381 = molecular target: UniProt O77381
UniProt O96217 = molecular target: UniProt O96217
UniProt O96259 = molecular target: UniProt O96259
UniProt O97250 = molecular target: UniProt O97250
UniProt Q76NM6 = molecular target: UniProt Q76NM6
UniProt Q76NN8 = molecular target: UniProt Q76NN8
UniProt Q7K6A8 = molecular target: UniProt Q7K6A8
UniProt Q7K6B0 = molecular target: UniProt Q7K6B0
UniProt Q7KQJ9 = molecular target: UniProt Q7KQJ9
UniProt Q7KQM0 = molecular target: UniProt Q7KQM0
UniProt Q8I0U7 = molecular target: UniProt Q8I0U7
UniProt Q8I1Q9 = molecular target: UniProt Q8I1Q9
UniProt Q8I259 = molecular target: UniProt Q8I259
UniProt Q8I2I8 = molecular target: UniProt Q8I2I8
UniProt Q8I2R0 = molecular target: UniProt Q8I2R0
UniProt Q8I2W2 = molecular target: UniProt Q8I2W2
UniProt Q8I395 = molecular target: UniProt Q8I395
UniProt Q8I4Q5 = molecular target: UniProt Q8I4Q5
UniProt Q8I5A6 = molecular target: UniProt Q8I5A6
UniProt Q8I5C4 = molecular target: UniProt Q8I5C4
UniProt Q8I5D5 = molecular target: UniProt Q8I5D5
UniProt Q8IAW7 = molecular target: UniProt Q8IAW7
UniProt Q8IAX6 = molecular target: UniProt Q8IAX6
UniProt Q8IBK8 = molecular target: UniProt Q8IBK8
UniProt Q8IBZ2 = molecular target: UniProt Q8IBZ2
UniProt Q8IC16 = molecular target: UniProt Q8IC16
UniProt Q8ID28 = molecular target: UniProt Q8ID28
UniProt Q8ID31 = molecular target: UniProt Q8ID31
UniProt Q8IDD9 = molecular target: UniProt Q8IDD9
UniProt Q8IDN9 = molecular target: UniProt Q8IDN9
UniProt Q8IE76 = molecular target: UniProt Q8IE76
UniProt Q8IHT9 = molecular target: UniProt Q8IHT9
UniProt Q8II00 = molecular target: UniProt Q8II00
UniProt Q8II11 = molecular target: UniProt Q8II11
UniProt Q8II71 = molecular target: UniProt Q8II71
UniProt Q8IIJ9 = molecular target: UniProt Q8IIJ9
UniProt Q8IIL5 = molecular target: UniProt Q8IIL5
UniProt Q8IIR7 = molecular target: UniProt Q8IIR7
UniProt Q8IIS9 = molecular target: UniProt Q8IIS9
UniProt Q8IIU5 = molecular target: UniProt Q8IIU5
UniProt Q8IKF6 = molecular target: UniProt Q8IKF6
UniProt Q8IKH8 = molecular target: UniProt Q8IKH8
UniProt Q8IKV6 = molecular target: UniProt Q8IKV6
UniProt Q8ILK2 = molecular target: UniProt Q8ILK2
UniProt Q9TY98 = molecular target: UniProt Q9TY98
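Note: native unpurified kinases from lysate captured on beads bearing immobilized kinase inhibitors, with bead-bound kinases quantified by mass spectrometry across compound doses.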

Sequence of UniProt Q76NM6 (Q76NM6 whole entry): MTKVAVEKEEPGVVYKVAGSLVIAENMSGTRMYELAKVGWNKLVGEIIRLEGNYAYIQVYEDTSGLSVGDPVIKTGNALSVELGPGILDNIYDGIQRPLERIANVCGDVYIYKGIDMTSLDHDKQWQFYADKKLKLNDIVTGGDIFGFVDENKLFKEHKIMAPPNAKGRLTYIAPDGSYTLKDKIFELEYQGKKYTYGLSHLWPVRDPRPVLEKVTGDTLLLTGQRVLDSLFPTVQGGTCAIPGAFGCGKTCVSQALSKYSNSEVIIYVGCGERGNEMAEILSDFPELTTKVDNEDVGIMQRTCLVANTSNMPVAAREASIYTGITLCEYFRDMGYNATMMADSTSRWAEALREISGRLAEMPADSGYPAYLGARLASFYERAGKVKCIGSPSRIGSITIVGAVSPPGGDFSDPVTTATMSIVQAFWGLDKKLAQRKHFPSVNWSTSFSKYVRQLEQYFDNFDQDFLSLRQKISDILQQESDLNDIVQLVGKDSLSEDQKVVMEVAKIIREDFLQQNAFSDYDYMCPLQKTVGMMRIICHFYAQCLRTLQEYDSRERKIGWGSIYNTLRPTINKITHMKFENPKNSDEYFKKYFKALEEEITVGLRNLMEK
Sequence of UniProt Q7KQM0 (Q7KQM0 whole entry): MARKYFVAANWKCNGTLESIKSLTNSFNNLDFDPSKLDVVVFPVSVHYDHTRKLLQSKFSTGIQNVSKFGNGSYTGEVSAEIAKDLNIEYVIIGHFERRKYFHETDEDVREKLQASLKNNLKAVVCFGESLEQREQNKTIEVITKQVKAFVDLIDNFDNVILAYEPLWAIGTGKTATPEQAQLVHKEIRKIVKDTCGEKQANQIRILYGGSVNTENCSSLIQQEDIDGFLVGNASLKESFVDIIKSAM
Sequence of UniProt Q8IIR7 (Q8IIR7 whole entry): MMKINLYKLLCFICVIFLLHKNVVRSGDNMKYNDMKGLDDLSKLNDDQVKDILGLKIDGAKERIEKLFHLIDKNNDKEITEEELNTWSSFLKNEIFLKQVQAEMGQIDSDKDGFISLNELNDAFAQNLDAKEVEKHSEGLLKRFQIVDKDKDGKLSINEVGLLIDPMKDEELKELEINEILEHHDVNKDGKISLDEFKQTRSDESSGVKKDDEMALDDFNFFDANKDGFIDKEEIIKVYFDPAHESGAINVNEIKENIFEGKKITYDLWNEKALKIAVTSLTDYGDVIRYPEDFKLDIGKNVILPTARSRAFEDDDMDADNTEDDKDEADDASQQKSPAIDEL
Sequence of UniProt Q8IIJ9 (Q8IIJ9 whole entry): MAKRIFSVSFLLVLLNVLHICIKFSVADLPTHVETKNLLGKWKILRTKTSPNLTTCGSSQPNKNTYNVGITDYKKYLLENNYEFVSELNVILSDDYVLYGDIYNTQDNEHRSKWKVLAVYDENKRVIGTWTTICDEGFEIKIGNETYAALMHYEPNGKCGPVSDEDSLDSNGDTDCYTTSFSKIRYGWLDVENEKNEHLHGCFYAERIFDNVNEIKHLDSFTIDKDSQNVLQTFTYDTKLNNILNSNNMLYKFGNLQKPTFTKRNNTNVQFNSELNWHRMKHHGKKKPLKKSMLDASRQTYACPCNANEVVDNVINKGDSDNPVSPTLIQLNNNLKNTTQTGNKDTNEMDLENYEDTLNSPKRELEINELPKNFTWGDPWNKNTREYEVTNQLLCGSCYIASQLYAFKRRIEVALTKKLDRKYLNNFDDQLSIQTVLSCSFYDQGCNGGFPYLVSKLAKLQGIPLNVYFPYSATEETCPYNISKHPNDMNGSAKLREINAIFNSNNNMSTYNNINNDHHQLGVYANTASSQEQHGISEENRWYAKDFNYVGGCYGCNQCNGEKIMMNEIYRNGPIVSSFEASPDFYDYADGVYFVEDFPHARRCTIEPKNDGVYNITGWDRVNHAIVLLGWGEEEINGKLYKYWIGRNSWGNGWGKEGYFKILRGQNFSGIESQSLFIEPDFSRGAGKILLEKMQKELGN
Sequence of UniProt Q7KQJ9 (Q7KQJ9 whole entry): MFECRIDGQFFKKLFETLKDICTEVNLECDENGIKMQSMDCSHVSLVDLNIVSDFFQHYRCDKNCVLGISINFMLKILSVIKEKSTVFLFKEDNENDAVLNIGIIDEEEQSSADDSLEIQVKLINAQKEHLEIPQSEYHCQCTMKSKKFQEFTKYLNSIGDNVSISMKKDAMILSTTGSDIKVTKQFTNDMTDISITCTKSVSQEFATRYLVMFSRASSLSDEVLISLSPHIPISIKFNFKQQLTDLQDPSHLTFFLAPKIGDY
Sequence of UniProt Q8I395 (Q8I395 whole entry): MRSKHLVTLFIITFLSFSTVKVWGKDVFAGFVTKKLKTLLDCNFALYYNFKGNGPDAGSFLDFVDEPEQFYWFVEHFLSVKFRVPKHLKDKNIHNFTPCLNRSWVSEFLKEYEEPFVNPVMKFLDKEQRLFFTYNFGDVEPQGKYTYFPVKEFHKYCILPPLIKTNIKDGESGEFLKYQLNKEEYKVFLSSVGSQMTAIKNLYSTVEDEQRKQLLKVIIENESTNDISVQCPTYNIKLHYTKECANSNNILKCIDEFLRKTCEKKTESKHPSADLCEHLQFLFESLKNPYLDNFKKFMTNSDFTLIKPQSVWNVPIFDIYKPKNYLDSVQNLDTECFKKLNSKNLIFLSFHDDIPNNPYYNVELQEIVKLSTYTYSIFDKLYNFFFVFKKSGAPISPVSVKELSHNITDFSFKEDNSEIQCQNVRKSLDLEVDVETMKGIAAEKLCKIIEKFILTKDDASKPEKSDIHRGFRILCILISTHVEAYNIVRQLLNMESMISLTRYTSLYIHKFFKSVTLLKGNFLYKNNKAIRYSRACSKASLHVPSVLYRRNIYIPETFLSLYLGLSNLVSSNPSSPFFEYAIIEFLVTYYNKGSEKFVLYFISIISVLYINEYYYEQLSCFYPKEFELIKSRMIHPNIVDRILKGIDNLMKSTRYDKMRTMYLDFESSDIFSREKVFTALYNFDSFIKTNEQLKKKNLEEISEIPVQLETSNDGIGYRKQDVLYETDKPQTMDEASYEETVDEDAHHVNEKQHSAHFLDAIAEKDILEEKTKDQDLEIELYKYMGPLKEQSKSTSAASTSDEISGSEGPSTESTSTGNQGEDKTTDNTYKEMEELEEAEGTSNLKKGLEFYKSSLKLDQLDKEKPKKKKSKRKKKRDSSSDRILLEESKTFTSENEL

How did the IC50 (UniProt C0H4A6) turn out when `O=c1[nH]c2ccc(Cl)cc2c(NC2CN3CCC2CC3)c1-c1nc2ccccc2[nH]1` (stereo unspecified) [CHIR-124] was run?
Its IC50 is over 20 µM.

And the IC50 (UniProt C0H586)?
The IC50 was over 20 µM.

And the IC50 (UniProt C0H5I7)?
Its IC50 is over 20 µM.

And the IC50 (UniProt C0H5J5)?
The IC50 was over 20 µM.

And the IC50 (UniProt C6KT64)?
Its IC50 is over 20 µM.

What about the IC50 (UniProt O77328) of the same compound?
Its IC50 is over 20 µM.

And the IC50 (UniProt O77381)?
The IC50 was over 20 µM.

And the IC50 (UniProt O96217)?
The IC50 was over 20 µM.

What about the IC50 (UniProt O96259) of the same compound?
Its IC50 is over 20 µM.

And the IC50 (UniProt O97250)?
The IC50 was over 20 µM.

What about the IC50 (UniProt Q76NM6) of the same compound?
The IC50 was over 20 µM.

And the IC50 (UniProt Q76NN8)?
The IC50 was over 20 µM.

What about the IC50 (UniProt Q7K6A8) of the same compound?
Its IC50 is over 20 µM.

And the IC50 (UniProt Q7K6B0)?
The IC50 was over 20 µM.

What about the IC50 (UniProt Q7KQJ9) of the same compound?
Its IC50 is over 20 µM.

What about the IC50 (UniProt Q7KQM0) of the same compound?
The IC50 was over 20 µM.

And the IC50 (UniProt Q8I0U7)?
The IC50 was over 20 µM.

What about the IC50 (UniProt Q8I1Q9) of the same compound?
Its IC50 is over 20 µM.

And the IC50 (UniProt Q8I259)?
Its IC50 is over 20 µM.

What about the IC50 (UniProt Q8I2I8) of the same compound?
The IC50 was over 20 µM.

What about the IC50 (UniProt Q8I2R0) of the same compound?
Its IC50 is over 20 µM.

And the IC50 (UniProt Q8I2W2)?
Its IC50 is over 20 µM.

What about the IC50 (UniProt Q8I395) of the same compound?
The IC50 was over 20 µM.

And the IC50 (UniProt Q8I4Q5)?
The IC50 was over 20 µM.

What about the IC50 (UniProt Q8I5A6) of the same compound?
Its IC50 is over 20 µM.

What about the IC50 (UniProt Q8I5C4) of the same compound?
The IC50 was over 20 µM.

What about the IC50 (UniProt Q8I5D5) of the same compound?
Its IC50 is over 20 µM.

And the IC50 (UniProt Q8IAW7)?
Its IC50 is over 20 µM.

What about the IC50 (UniProt Q8IAX6) of the same compound?
The IC50 was over 20 µM.

What about the IC50 (UniProt Q8IBK8) of the same compound?
The IC50 was over 20 µM.

What about the IC50 (UniProt Q8IBZ2) of the same compound?
The IC50 was over 20 µM.

What about the IC50 (UniProt Q8IC16) of the same compound?
Its IC50 is over 20 µM.

And the IC50 (UniProt Q8ID28)?
The IC50 was over 20 µM.

And the IC50 (UniProt Q8ID31)?
Its IC50 is over 20 µM.

And the IC50 (UniProt Q8IDD9)?
The IC50 was over 20 µM.

What about the IC50 (UniProt Q8IDN9) of the same compound?
The IC50 was over 20 µM.

What about the IC50 (UniProt Q8IE76) of the same compound?
Its IC50 is over 20 µM.

What about the IC50 (UniProt Q8IHT9) of the same compound?
The IC50 was over 20 µM.

And the IC50 (UniProt Q8II00)?
The IC50 was over 20 µM.

And the IC50 (UniProt Q8II11)?
Its IC50 is under 0.0823 µM.

And the IC50 (UniProt Q8II71)?
The IC50 was over 20 µM.

What about the IC50 (UniProt Q8IIJ9) of the same compound?
The IC50 was over 20 µM.

What about the IC50 (UniProt Q8IIL5) of the same compound?
Its IC50 is over 20 µM.

And the IC50 (UniProt Q8IIR7)?
Its IC50 is over 20 µM.

And the IC50 (UniProt Q8IIS9)?
Its IC50 is over 20 µM.

And the IC50 (UniProt Q8IIU5)?
The IC50 was over 20 µM.

And the IC50 (UniProt Q8IKF6)?
The IC50 was over 20 µM.

What about the IC50 (UniProt Q8IKH8) of the same compound?
The IC50 was over 20 µM.

And the IC50 (UniProt Q8IKV6)?
Its IC50 is over 20 µM.

And the IC50 (UniProt Q8ILK2)?
Its IC50 is over 20 µM.

And the IC50 (UniProt Q9TY98)?
The IC50 was over 20 µM.
